EPA's ToxValDB 9.5 (doi:10.2903/j.efsa.2011.2018)
Converted amounts (≈) assume the structure as drawn.

Key:
Anas platyrhynchos = conditions: short-term; oral; feed; mortality
Apis mellifera = conditions: acute; duration: 48 hours; dermal; mortality
Folsomia candida = conditions: chronic/long-term; duration: 28 days; mortality
Lepomis macrochirus = conditions: acute; duration: 96 hours; mortality
Tagia sp. = conditions: acute; duration: 14 days; mortality
Aphidius rhopalosiphi = assay: LR50; higher = less toxic; conditions: not reported; mortality

## [O-][n+]1nc(-n2ccnc2)nc2ccc(Cl)cc21 [Triazoxide]
Anas platyrhynchos
  LC50: 268 mg/kg-day
Apis mellifera
  LD50: > 200 µg/piece
Coturnix japonica; acute, oral, mortality
  LD50: 90 mg/kg-day
Coturnix japonica; reproduction developmental, duration: 6 weeks
  NOEC: 11.7 mg/kg-day
Folsomia candida
  NOEC: 500 mg/kg
Lepomis macrochirus
  LC50: 0.077 µg/mL (≈ 0.311 µM)
Rattus norvegicus; acute, oral, mortality
  LD50: 14 mg/kg-day
Rattus norvegicus; chronic, duration: 2 years, gross pathology
  LOAEL: 0.05 mg/kg-day
Rattus norvegicus; reproduction developmental, no effects
  NOEL: 2.04 mg/kg-day
Rattus norvegicus; short-term, duration: 28 days
  NOAEL: 1.5 mg/kg-day
Rattus norvegicus; subchronic, duration: 90 days, oral, hematological
  NOAEL: 0.21 mg/kg-day
Tagia sp.
  LC50: > 1000 mg/kg
Aphidius rhopalosiphi
  LR50: > 5.13 g/ha
